Test results: US20240270737A1, “SMALL MOLECULAR INHIBITORS OF STING SIGNALING COMPOSITIONS AND METHODS OF USE” (STINGINN INC., priority 2021, published 2024)

Tests used:
[1] = system: IFNβ expression (type I IFNβ promoter driving luciferase); assay: IFNβ promoter luciferase assay in hTERT-pIFNβ-Glu cells transfected with ISD; assay type: cell-based, human
Procedure: Inhibition of IFNβ expression was measured by Luciferase induction at 24 hours after transfection of ISD, DMSO is shown (230), ISD treatment only (220) was used as a control, according to an embodiment of the invention;
Inhibition of IFNβ expression was measured by Luciferase induction at 24 hours after transfection of ISD, Mock is shown (210), ISD treatment only (220) was used as a control, according to an embodiment of the invention;
Identification of small molecule inhibitors of STING. In the presence of cytosolic DNA species, STING becomes activated to drive the transcription of cytokines such as type I IFN. Compounds binding to STING via TSA were subsequently examined for their ability to prevent cytosolic DNA species from activating the type I interferon (IFN) promoter, using a live cell assay. This assay comprised immortalized human fibroblasts (hTERT) that were stably transfected with the type I IFN promoter driving luciferase as well as the CMV promoter driving SEAP (hTERT-pIFNβ-Glu). The live cell assay has previously been disclosed in PCT/US2019/025380 entitled IFN-Beta Reporter System for Immortalized Primary Cells inventor Glen N. Barber, which was filed Apr. 2, 2018 and published as WO2019195285, and which is herein incorporated by reference in its entirety and for all purposes. The ability of the small molecules to prevent activation of the type I IFN promoter and the transcription of luciferase, but not SEAP in response to cytosolic DNA species was assessed. The activation of STING, typically by CDNs, in turn activates the transcription factors NF-κB and IRF3, both of which are required to induce the transcriptional stimulation of the Type I IFN promoter, but not the CMV promoter as IRF3 and NF-kB transcription factor binding sites are not contained in the CMV promoter. The assay identified the small molecule Compound W1 in the first screen (HTS), where the level of luciferase was not able to activate the type I IFN promoter or induce the expression of luciferase (see Table I and Table II).
Inhibition of IFNβ expression was measured by Luciferase induction at 24 hours after transfection of ISD. ISD only treatment was used as control.
Inhibition of IFNβ expression was measured by Luciferase induction at 24 hours after transfection of ISD, Mock is shown (210), ISD treatment only (220) was used as a control.
Luciferase assay: hTERT-BJ1 Telomerase Fibroblasts stably expressing the luciferase gene under the control of the interferon-beta promoter and SEAP gene under control of the CMV promoter) (hTERT-pIFNβ-Glu) were generated by the Barber laboratory. Luciferase assay was performed using Secrete-Pair Dual Luminescence Assay Kit from GeneCopoeia following the manufacturer's protocol.

[2] = system: T1, human STING CBD-CTT (152-379); assay: Thermal shift assay (TSA) binding to purified STING
T1 construct: made in house; host or cells: E. coli BL21 DE3 RIPL Codon Plus
Text: Purified STING protein was used as bait to identify binding compounds, using a thermal shift assay (TSA). A library containing 250,000 compounds (Enamine, Monmouth Jct., NJ) was surveyed. Compounds that bound to STING were then examined for their ability to inhibit STING signaling, see Examples 1-4 vide infra. In the presence of cytosolic DNA species, STING becomes activated to drive the transcription of cytokines such as type I IFN. Compounds binding to STING via TSA were subsequently examined for their ability prevent cytosolic DNA species from activating the type I interferon (IFN) promoter, using a live cell assay. This assay comprised immortalized human fibroblasts (hTERT) that were stably transfected with the type I IFN promoter driving luciferase as well as the CMV promoter driving SEAP (hTERT-pIFNβ-Glu). The ability of the small molecules to prevent activation of the type I IFN promoter and the transcription of luciferase, but not SEAP in response to cytosolic DNA species can be assessed. […]
Thermal High Throughput Screen: The denaturation profile of purified STING (STING152-379H) was calibrated using a fluorometer equipped with temperature control (a qPCR apparatus with 320 well capacity). […] Curves were measured for STING only and STING+small molecule, and ΔTm was calculated. […]

Cc1cc([N+](=O)[O-])ccc1S(=O)(=O)Nc1nc2cc(C(F)(F)F)ccc2[nH]1 [Compound W1, 2-methyl-4-nitro-N-[5-(trifluoromethyl)-1H-1,3-benzodiazol-2-yl]benzene-1-sulfonamide]
activation of the type I IFN promoter in response to cytosolic DNA (luciferase) ([1]; 50 μM, 24 hours, ISD 3 μg/ml, hTERT-pIFNβ-Glu cells): inhibited activation of the type I IFN promoter | inhibition at 5 µM ([1]; Homo sapiens): 4% | binding to STING [2]: binds to STING
